# From patent publication US6855872B2 (priority 1997, dated 2005)
# Key:
# [1] = test system: wild type non-transformed N. debneyi cell suspension (N.d.wt); type: cell-based
# [2] = test system: protoplasts from transgenic plants with the rice Rpl3 gene (C3 lines); type: cell-based, Nicotiana tabacum
# [3] = test system: leaf explants of pCAPRL3 plants; type: cell-based
# [4] = test system: maize embryogenic cultures (A188xB73) transformed with pActRPL3; type: cell-based
# [5] = test system: protoplasts of the genotype Rpl3:c258 (C4 lines); type: cell-based, Nicotiana tabacum
# [6] = test system: cells of transgenic line expressing the rice Rpl3c:258 (N.dpCARPLC4); type: cell-based, N. debneyi
# [7] = test system: cell suspensions of pCARPL3 plants (N.d.pCARPL3); type: cell-based, N. debneyi
# [8] = test system: wheat anther-derived callus tissue; settings: cited from earlier work
# [9] = test system: protoplasts from wild-type tobacco plants; type: cell-based, Nicotiana tabacum
# [10] = test system: leaf explants from pCARPLC4 plants; type: cell-based
# [11] = test system: maize embryogenic cultures (A188xB73) transformed with pActRPLC4; type: cell-based
# mature maize embryos = settings: cited from earlier work
# [12] = test system: leaf explants of wild-type plants; type: cell-based
smiles,measurement,setting,value
"CC1=C[C@H]2O[C@@H]3[C@H](O)C[C@](C)([C@@]2(CO)[C@H](O)C1=O)[C@]31CO1 [DON, deoxynivalenol]",weight gain of cells after 20 days in culture,[1],inhibited
same,micro colony formation from protoplasts,[2],did not often develop into calli
same,formation of callus and shoots on leaf explants,[3],inhibiting the formation of callus and shoots
same,"callus growth, % of the control",[4],15%
same,micro colony formation from protoplasts,[5],capable of transfer to regeneration medium
same,viability of protoplasts,[5],not significantly affected
same,impact on packed cell volume or cell fresh weight gain,[6],less serious impact
same,weight gain of cells after 20 days in culture,[6],not inhibited as much
same,packed cell volume and fresh weight gain of cell suspensions,[7],sufficient to inhibit
same,weight gain of cells after 20 days in culture,[7],inhibited
same,growth of wheat anther-derived callus tissue,[8],reduces growth
same,susceptibility of wild-type plants (protoplasts) to DON,[9],susceptible
same,shoot regeneration on leaf explants,[10],capable of shoot regeneration
same,DON required to reduce growth to 15% of control values,[11],50 µg/mL
same,"callus growth, % of the control",[11],63%
same,increase in tolerance to DON by the RPLC4 callus,[11],10 fold
same,DON concentration sufficient to significantly inhibit growth,mature maize embryos,10 µg/mL
same,formation of callus and shoots on leaf explants,[12],inhibiting the formation of callus and shoots
